Series [1] can be described thus: in vitro. The following applies: human, HEK-Blue hNOD2 cells.
Series [2] is described as follows: in vitro. The conditions noted are these: human, HEK-Blue hNOD1 cells.
The target in series [3] is T1, Nucleotide-binding oligomerization domain-containing protein 1 (Homo sapiens, UniProt Q9Y239).
T1 sequence (Q9Y239 whole entry): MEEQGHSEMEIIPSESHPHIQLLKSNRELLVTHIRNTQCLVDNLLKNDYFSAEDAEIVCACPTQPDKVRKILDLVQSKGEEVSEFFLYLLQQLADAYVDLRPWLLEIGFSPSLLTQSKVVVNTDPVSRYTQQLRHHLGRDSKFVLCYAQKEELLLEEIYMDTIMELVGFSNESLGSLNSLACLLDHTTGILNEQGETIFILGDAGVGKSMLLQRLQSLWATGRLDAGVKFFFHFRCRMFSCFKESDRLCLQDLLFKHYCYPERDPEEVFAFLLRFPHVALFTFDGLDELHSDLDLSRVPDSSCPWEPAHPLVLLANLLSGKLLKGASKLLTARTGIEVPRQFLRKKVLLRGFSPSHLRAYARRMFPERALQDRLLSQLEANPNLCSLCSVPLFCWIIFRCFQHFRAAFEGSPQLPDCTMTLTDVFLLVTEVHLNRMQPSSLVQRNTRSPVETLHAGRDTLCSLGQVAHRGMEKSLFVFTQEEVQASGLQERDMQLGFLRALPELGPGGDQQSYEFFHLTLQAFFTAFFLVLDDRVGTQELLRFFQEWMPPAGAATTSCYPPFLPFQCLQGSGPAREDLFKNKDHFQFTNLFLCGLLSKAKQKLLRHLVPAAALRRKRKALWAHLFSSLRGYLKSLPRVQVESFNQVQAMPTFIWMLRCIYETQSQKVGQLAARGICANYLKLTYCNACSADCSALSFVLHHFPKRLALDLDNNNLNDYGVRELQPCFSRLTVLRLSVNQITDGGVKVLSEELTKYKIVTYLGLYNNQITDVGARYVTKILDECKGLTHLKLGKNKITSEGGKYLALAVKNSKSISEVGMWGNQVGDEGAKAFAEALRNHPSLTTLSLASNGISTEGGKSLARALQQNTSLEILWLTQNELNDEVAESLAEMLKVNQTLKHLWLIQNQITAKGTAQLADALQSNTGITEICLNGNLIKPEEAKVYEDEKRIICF
Description: Antagonist activity at human NOD1 expressed in HEK-Blue cells coexpressing NF-kappaB-inducible SEAP reporter gene assessed as inhibition of C12-iE-DAP-induced NF-kappaB transcriptional activity by measuring decrease in SEAP activity preincubated for 1 hr followed by C12-iE-DAP addition and measured after 18 hrs by spectrophotometric analysis

Series [4] deals with Nucleotide-binding oligomerization domain-containing protein 2 (Homo sapiens, UniProt Q9HC29).
Description: Antagonist activity at human NOD2 (unknown origin)

For orientation: viability means a per cent measure of how many cells are alive, often set against a control. A higher viability goes with better survival. A word on the IC50: it is the point on the concentration scale where inhibition reaches its midpoint.

Nucleotide-binding oligomerization domain-containing protein 2, sequence (Q9HC29 whole entry, the tested form may be a part): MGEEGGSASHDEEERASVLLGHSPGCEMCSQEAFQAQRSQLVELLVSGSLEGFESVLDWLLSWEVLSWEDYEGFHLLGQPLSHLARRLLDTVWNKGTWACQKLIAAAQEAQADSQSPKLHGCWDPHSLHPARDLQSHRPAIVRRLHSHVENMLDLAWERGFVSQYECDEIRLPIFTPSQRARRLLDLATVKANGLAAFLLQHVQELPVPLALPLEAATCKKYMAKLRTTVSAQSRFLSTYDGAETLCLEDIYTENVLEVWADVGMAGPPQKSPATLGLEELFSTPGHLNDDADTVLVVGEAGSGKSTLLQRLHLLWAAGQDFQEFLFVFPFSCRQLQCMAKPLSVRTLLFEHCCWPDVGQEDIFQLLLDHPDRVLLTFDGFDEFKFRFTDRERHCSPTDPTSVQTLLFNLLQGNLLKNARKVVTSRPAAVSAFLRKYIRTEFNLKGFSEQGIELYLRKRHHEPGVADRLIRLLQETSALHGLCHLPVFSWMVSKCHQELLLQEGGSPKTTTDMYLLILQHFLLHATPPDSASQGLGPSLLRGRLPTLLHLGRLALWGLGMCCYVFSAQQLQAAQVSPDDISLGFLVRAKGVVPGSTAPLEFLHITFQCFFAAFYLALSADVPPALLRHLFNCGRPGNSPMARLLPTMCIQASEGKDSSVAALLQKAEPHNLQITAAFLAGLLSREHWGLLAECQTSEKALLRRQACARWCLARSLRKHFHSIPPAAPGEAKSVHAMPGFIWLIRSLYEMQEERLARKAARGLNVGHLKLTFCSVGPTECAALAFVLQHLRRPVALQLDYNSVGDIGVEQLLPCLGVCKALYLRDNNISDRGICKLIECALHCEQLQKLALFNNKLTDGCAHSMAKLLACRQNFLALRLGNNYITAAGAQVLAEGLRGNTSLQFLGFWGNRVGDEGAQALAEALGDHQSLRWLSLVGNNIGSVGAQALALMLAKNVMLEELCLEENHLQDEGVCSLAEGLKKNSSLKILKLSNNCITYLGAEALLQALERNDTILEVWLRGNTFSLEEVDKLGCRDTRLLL

With `CC(C)(C)Nc1c(N2CCOCC2)c2ccccc2n1S(=O)(=O)c1ccc([N+](=O)[O-])cc1`, the viability at 18 h, 25 µM in the series “in vitro [1]” and in “in vitro [2]” was no less than 80% each time.
`Cc1ccc(S(=O)(=O)n2c(NC3CCCCC3)c(N3CCN(C)CC3)c3cc4ccccc4cc32)cc1`: the viability at 18 h, 25 µM in “in vitro [1]” and in the series “in vitro [2]” was no less than 80% each time.
With `Cc1ccc(S(=O)(=O)n2c(NC(C)(C)C)c(N3CCN(C)CC3)c3cc4ccccc4cc32)cc1`, the viability at 18 h, 25 µM in the series “in vitro [1]” and in the series “in vitro [2]” was no less than 80% throughout.
For the compound `CCN(CC)c1c(NC(C)(C)C)n(S(=O)(=O)c2ccc(C)cc2)c2ccccc12`, the viability at 18 h, 25 µM in the series “in vitro [1]” and in the series “in vitro [2]” was no less than 80% in each case.
Take `COC(=O)CNc1c(N2CCOCC2)c2ccccc2n1S(=O)(=O)c1ccc(C)cc1`: the viability at 18 h, 25 µM in “in vitro [1]” and in the series “in vitro [2]” was no less than 80% throughout.
Consider `Cc1ccc(S(=O)(=O)n2c(NC(C)(C)C)c(N3CCOCC3)c3cc(Cl)ccc32)cc1`, for which the viability at 18 h, 25 µM in “in vitro [1]” and in the series “in vitro [2]” was no less than 80% each time.
As to `Cc1ccc(S(=O)(=O)n2c(NC3CCCCC3)c(N3CCN(C)CC3)c3ccccc32)cc1`, the viability at 18 h, 25 µM in “in vitro [1]” and in the series “in vitro [2]” was no less than 80% in each case. Moreover, the IC50 in series [3] came out at 18.5 µM.
`COc1ccc(S(=O)(=O)n2c(NC(C)(C)C)c(N3CCOCC3)c3ccccc32)cc1`: the viability at 18 h, 25 µM in the series “in vitro [1]” and in the series “in vitro [2]” was no less than 80% in each case.
Consider `CCN(CC)c1c(NC(C)(C)C)n(S(=O)(=O)c2ccc(C)cc2)c2cccc(C)c12`, for which the viability at 18 h, 25 µM in “in vitro [1]” and in “in vitro [2]” was no less than 80% each time.
As to `Cc1ccc(S(=O)(=O)n2c(NCc3ccccc3)c(N3CCN(C)CC3)c3ccccc32)cc1`, the viability at 18 h, 25 µM in the series “in vitro [1]” and in “in vitro [2]” was no less than 80% each time.
For the compound `Cc1ccc(S(=O)(=O)n2c(NC(C)(C)C)c(N3CCOCC3)c3ccccc32)cc1`, the viability at 18 h, 25 µM in the series “in vitro [1]” and in “in vitro [2]” was no less than 80% each time.
Take `Cc1ccc(S(=O)(=O)n2c(NC3CC3)c(N3CCOCC3)c3cc(Cl)ccc32)cc1`: the viability at 18 h, 25 µM in the series “in vitro [1]” and in “in vitro [2]” was no less than 80% each time.
As to `Cc1ccc(S(=O)(=O)n2c(NC(C)(C)C)c(N3CCCCC3)c3ccccc32)cc1`, the viability at 18 h, 25 µM in the series “in vitro [1]” and in “in vitro [2]” was no less than 80% in each case.
Consider `Cc1ccc(S(=O)(=O)n2c(NCc3ccccc3)c(N3CCOCC3)c3ccccc32)cc1`, for which the viability at 18 h, 25 µM in the series “in vitro [1]” and in the series “in vitro [2]” was no less than 80% each time.
In the case of `C#CCN(C)c1c(Nc2ccc3ccccc3c2)n(S(=O)(=O)c2ccc(C)cc2)c2cc(Cl)ccc12`, the viability at 18 h, 25 µM in “in vitro [1]” and in the series “in vitro [2]” was no less than 80% in each case.
`O=[N+]([O-])c1ccc(S(=O)(=O)n2c(NCc3ccccc3)c(N3CCOCC3)c3ccccc32)cc1`: the viability at 18 h, 25 µM in “in vitro [1]” and in the series “in vitro [2]” was no less than 80% in each case.
In series [4], `CCCCCn1c(SCCc2ccccc2)nc2[nH]c(=O)[nH]c(=O)c21` came in with a half-inhibitory concentration (IC50) greater than 20 µM.
Take `Cc1ccc(S(=O)(=O)n2c(NCc3ccccc3)c(N3CCN(C)CC3)c3cc4ccccc4cc32)cc1`: the viability at 18 h, 25 µM in “in vitro [1]” and in the series “in vitro [2]” was no less than 80% each time. In series [3], this compound had a concentration for half-maximal inhibition (IC50) of 20.7 µM.
For the compound `CCCCCNc1c(N(CC)CC)c2ccccc2n1S(=O)(=O)c1ccc(C)cc1`, the viability at 18 h, 25 µM in “in vitro [1]” and in the series “in vitro [2]” was no less than 80% throughout.
Take `CCCCCNc1c(N2CCOCC2)c2ccccc2n1S(=O)(=O)c1ccc(C)cc1`: the viability at 18 h, 25 µM in “in vitro [1]” and in the series “in vitro [2]” was no less than 80% throughout.
In the case of `CCCCCNc1c(N2CCOCC2)c2ccccc2n1S(=O)(=O)c1ccc([N+](=O)[O-])cc1`, the viability at 18 h, 25 µM in “in vitro [1]” and in the series “in vitro [2]” was no less than 80% throughout. This compound also returned a half-inhibitory concentration (IC50) in series [3] of 26.1 µM.

Source of the values: ChEMBL document CHEMBL5528038, “Discovery of 2,3-Diaminoindole Derivatives as a Novel Class of NOD Antagonists” (J Med Chem, 2024).
